SMILES strings stand for the structures. The source made the active and inactive calls. No cut-off for these calls is given here.

Experiment [1] concerns Nucleic Acid. The experiment can be described thus: Binding affinity to calf thymus DNA assessed as hypochromicity at 1 x 10^-5 M by UV-Vis spectroscopy. The class given is nucleic-acid assay. The note with it: Bos taurus.
Experiment [2] deals with Nucleic Acid. The experiment can be described thus: Binding affinity to calf thymus DNA assessed as change in melting temperature at 5 x 10^-6 M by thermal denaturation assay. Format: nucleic-acid assay. Particulars: Bos taurus.
Experiment [3] concerns Nucleic Acid. The experiment can be described thus: Binding affinity to calf thymus DNA assessed as intercalation at 1 x 10^-5 M by fluorescence spectroscopy. Format: nucleic-acid assay. The note with it: Bos taurus.
Another experiment has as its system HL-60. In words: Cytotoxicity against human HL60 cells by MTT assay. The class given is functional, cell-based. Background: Tetrazolium assays rely on reduction of a dye to a coloured formazan, in cell work by metabolically active cells.
The test system of experiment [4] is Nucleic Acid. In words: Binding affinity to calf thymus DNA assessed as efficiency of fluorescence enhancement at 1 x 10^-5 M by fluorescence spectroscopy. The class given is nucleic-acid assay. Particulars: Bos taurus.
The next experiment concerns Bel-7402. In words: Cytotoxicity against human Bel7402 cells by MTT assay. The class given is functional, cell-based.
The subject of experiment [5] is Nucleic Acid. The experiment can be described thus: Binding affinity to calf thymus DNA by UV-Vis spectroscopy. Particulars: Bos taurus. Format: nucleic-acid assay.
The test system of experiment [6] is Nucleic Acid. The experiment can be described thus: Binding affinity to calf thymus DNA assessed as melting temperature at 5 x 10^-6 M by thermal denaturation assay (reference value: 68.4 degC). Format: nucleic-acid assay. The note with it: Bos taurus.
The test system of experiment [7] is Nucleic Acid. In words: Binding affinity to calf thymus DNA assessed as bathochromic shift at 1 x 10^-5 M by UV-Vis spectroscopy. The class given is nucleic-acid assay. The note with it: Bos taurus.
For experiment [8], the system named is Nucleic Acid. In words: Binding affinity to calf thymus DNA assessed as intercalation at 2 x 10^-5 M by CD spectroscopy. The class given is nucleic-acid assay. Particulars: Bos taurus.

Regarding `CN(C)CCN1C(=O)c2cccc3c(NCCCCCCO)ccc(c23)C1=O`, the Activity with Nucleic Acid [1] is 31%; in the experiment on Nucleic Acid [7], 453 nm. In addition, the ΔTm with Nucleic Acid [2] was 3.4 °C. In addition, the result in the experiment on Nucleic Acid [3] and with Nucleic Acid [8] was Active. In addition, the IC50 came to 20.5 µM with HL-60 and 17.5 µM in the experiment on Bel-7402. The KSV in the experiment with Nucleic Acid [4] is 7.12 ×10³ /M. Also, in the experiment with Nucleic Acid [5], the K amounted to 1.1 ×10⁴ /M. Also, in the experiment with Nucleic Acid [6], the Tm stood at 71.8 °C.
For the compound `CN(C)CCN1C(=O)c2cccc3c(NCCCCCO)ccc(c23)C1=O`, the Activity in the experiment on Nucleic Acid [1] is 31%; in the experiment with Nucleic Acid [7], 453 nm. Besides, the ΔTm in the experiment with Nucleic Acid [2] was 3.8 °C. The result with Nucleic Acid [3] and in the experiment with Nucleic Acid [8] was Active. Also, the IC50 with HL-60 came out at 17.7 µM; in the experiment on Bel-7402, 9.17 µM. Besides, the KSV in the experiment with Nucleic Acid [4] turned out to be 4.36 ×10³ /M. This compound gave a K in the experiment on Nucleic Acid [5] of 1.2 ×10⁴ /M. Moreover, in the experiment on Nucleic Acid [6], the Tm was 72.2 °C.
On to `CN(C)CCN1C(=O)c2cccc3c(NCCCO)ccc(c23)C1=O`, for which the Activity was found to be 31% with Nucleic Acid [1] and 453 nm with Nucleic Acid [7]. The ΔTm in the experiment on Nucleic Acid [2] was determined as 3.5 °C. Moreover, the result in the experiment on Nucleic Acid [3] and in the experiment with Nucleic Acid [8] was Active. Further, the values for the IC50 in the experiment on HL-60 and in the experiment on Bel-7402 were 38.5 µM and 33.5 µM, respectively. The KSV with Nucleic Acid [4] stood at 4.03 ×10³ /M. The compound further yielded a K with Nucleic Acid [5] of 1.03 ×10⁴ /M. In the experiment on Nucleic Acid [6], the Tm was determined as 71.9 °C.
Regarding `CN(C)CCN1C(=O)c2cccc3c(NCCCCO)ccc(c23)C1=O`, the Activity with Nucleic Acid [1] is 30%; with Nucleic Acid [7] it was 452 nm. Further, the ΔTm in the experiment on Nucleic Acid [2] came to 2.8 °C. Further, the result in the experiment on Nucleic Acid [3] and with Nucleic Acid [8] was Active. The IC50 in the experiment on HL-60 is 11.2 µM; in the experiment on Bel-7402, 5.57 µM. Moreover, the KSV in the experiment on Nucleic Acid [4] stood at 1.15 ×10³ /M. This compound registered a K in the experiment with Nucleic Acid [5] of 0.74 ×10⁴ /M. Further, in the experiment with Nucleic Acid [6], the Tm was 71.2 °C.
As for `CN(C)CCN1C(=O)c2cccc3c(NCCO)ccc(c23)C1=O`, the values for the Activity with Nucleic Acid [1] and in the experiment with Nucleic Acid [7] were 31% and 447 nm, respectively. Besides, in the experiment on Nucleic Acid [2], the ΔTm is 2.6 °C. Moreover, the outcome in the experiment with Nucleic Acid [3] and in the experiment on Nucleic Acid [8] was Active. In addition, the IC50 in the experiment with HL-60 worked out at 25.9 µM; in the experiment with Bel-7402, 30.9 µM. Further, in the experiment on Nucleic Acid [4], the KSV was 3.12 ×10³ /M. In the experiment with Nucleic Acid [5], the K was 1.44 ×10⁴ /M. Moreover, in the experiment on Nucleic Acid [6], the Tm stood at 71 °C.

What is called ΔTm is the change in melting temperature against a reference sample. As a reminder, the IC50 is the concentration that gives 50% inhibition. What is called Tm is the temperature at the midpoint of the melting transition.

The record behind these values is ChEMBL document CHEMBL1938294, “DNA binding and anticancer activity of naphthalimides with 4-hydroxyl-alkylamine side chains at different lengths” (Bioorg Med Chem Lett, 2012).
